In US10208081B2, “Bile acid derivatives as FXR/TGR5 agonists and methods of use thereof” (Enanta Pharmaceuticals, Inc., priority 2014, dated 2019):

Target: human FXR (NR1H4) (Homo sapiens (Human), UniProt Q96RI1)
Assay: Human FXR (NR1H4) Assay (Gal4 promoter driven luciferase reporter, Indigo Bioscience kit IB00601)
Format: cell-based
Details: for Efficacy (%): efficacy normalized to CDCA set as 100%; for EC50: potency ranges
Source text: Assays Human FXR (NR1H4) Assay
Determination of a ligand mediated Gal4 promoter driven transactivation quantify ligand binding mediated activation of FXR. FXR Reporter Assay kit purchased from Indigo Bioscience (Catalogue number: IB00601) to determine the potency and efficacy of compound developed by Enanta that can induce FXR activation. The principle application of this reporter assay system is to quantify functional activity of human FXR. The assay utilizes non-human mammalian cells, CHO (Chinese hamster ovary) cells engineered to express human NR1H4 protein (referred to as FXR). Reporter cells also incorporate the cDNA encoding beetle luciferase which catalyzes the substrates and yields photon emission. Luminescence intensity of the reaction is quantified using a plate-reading luminometer, Envision. Reporter Cells include the luciferase reporter gene functionally linked to an FXR responsive promoter. Thus, quantifying changes in luciferase expression in the treated reporter cells provides a sensitive surrogate measure of the changes in FXR activity. […] The assay is according to the manufacturer's instructions. In brief, the assay was performed in white, 96 well plates using final volume of 100 ul containing cells with different doses of compounds. Retrieve Reporter Cells from −80° C. storage. Perform a rapid thaw of the frozen cells by transferring a 10 ml volume of 37° C. cell recovery medium into the tube of frozen cells. Recap the tube of Reporter Cells and immediately place it in a 37° C. water bath for 5-10 minutes. Retrieve the tube of Reporter Cell Suspension from the water bath. Sanitize the outside surface of the tube with a 70% alcohol swab, and then transfer it into the cell culture hood. Dispense 90 μl of cell suspension into each well of the 96-well Assay Plate. Transfer the plate into 37° C. incubator, allowing the cells adherent to the bottom of the well. Dilute compounds in Dilution Plate (DP), and administrate to cells at Assay Plate (AP). DMSO content of the samples was kept at 0.2%. Cells were incubated for additional 22 hours before luciferase activities were measured. Thirty minutes before intending to quantify FXR activity, remove Detection Substrate and Detection Buffer from the refrigerator and place them in a low-light area so that they may equilibrate to room temperature. Remove the plate's lid and discard all media contents by ejecting it into an appropriate waste container. Gently tap the inverted plate onto a clean absorbent paper towel to remove residual droplets. Cells will remain tightly adhered to well bottoms. Add 100 μl of luciferase detection reagent to each well of the assay plate. Allow the assay plate to rest at room temperature for at least 5 minutes following the addition of LDR. Set the instrument (Envision) to perform a single 5 second “plate shake” prior to reading the first assay well. Read time may be 0.5 second (500 mSec) per well.

Chain of human FXR (NR1H4) (Q96RI1 whole entry, the tested form may be a part): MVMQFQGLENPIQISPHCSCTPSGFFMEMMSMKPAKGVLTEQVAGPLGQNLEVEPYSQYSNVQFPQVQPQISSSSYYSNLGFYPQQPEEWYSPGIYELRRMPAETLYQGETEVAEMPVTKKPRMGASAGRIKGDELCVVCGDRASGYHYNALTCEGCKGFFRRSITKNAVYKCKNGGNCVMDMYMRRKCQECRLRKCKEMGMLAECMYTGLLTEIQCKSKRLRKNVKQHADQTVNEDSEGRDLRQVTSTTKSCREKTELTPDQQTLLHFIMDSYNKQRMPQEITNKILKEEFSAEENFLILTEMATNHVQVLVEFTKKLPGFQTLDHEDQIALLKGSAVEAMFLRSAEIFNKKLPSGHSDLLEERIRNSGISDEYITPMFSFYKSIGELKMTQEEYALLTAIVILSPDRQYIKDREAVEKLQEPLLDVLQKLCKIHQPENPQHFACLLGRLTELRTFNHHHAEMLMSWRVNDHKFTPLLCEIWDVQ

Row | Compound | Efficacy (%) | EC50
1 | CC[C@H]1[C@@H](O)[C@@H]2[C@H](CC[C@]3(C)[C@@H]([C@H](C)CCNC(=O)NS(=O)(=O)C4(C)CC4)CC[C@@H]23)[C@@]2(C)CC[C@@H](O)C[C@@H]12 [Example 46] | 315% | < 100 nM
2 | CC[C@H]1[C@@H](O)[C@@H]2[C@H](CC[C@]3(C)[C@@H]([C@H](C)CCNC(=O)NS(=O)(=O)N4CCCCCC4)CC[C@@H]23)[C@@]2(C)CC[C@@H](O)C[C@@H]12 [Example 47] | 361% | < 100 nM
3 | CC[C@H]1[C@@H](O)[C@@H]2[C@H](CC[C@]3(C)[C@@H]([C@H](C)CCNC(=O)NS(=O)(=O)N4CCCC4)CC[C@@H]23)[C@@]2(C)CC[C@@H](O)C[C@@H]12 [Example 48] | 420% | < 100 nM
4 | CC[C@H]1[C@@H](O)[C@@H]2[C@H](CC[C@]3(C)[C@@H]([C@H](C)CCNC(=O)NS(=O)(=O)c4ccncc4)CC[C@@H]23)[C@@]2(C)CC[C@@H](O)C[C@@H]12 [Example 49] | 236% | 1000 to 10000 nM
5 | CC[C@H]1[C@@H](O)[C@@H]2[C@H](CC[C@]3(C)[C@@H]([C@H](C)CCNC(=O)NS(=O)(=O)c4cccc(OC(F)(F)F)c4)CC[C@@H]23)[C@@]2(C)CC[C@@H](O)C[C@@H]12 [Example 50] | 309% | < 100 nM
6 | CC[C@H]1[C@@H](O)[C@@H]2[C@H](CC[C@]3(C)[C@@H]([C@H](C)CCNC(=O)NS(=O)(=O)c4cccc(F)c4)CC[C@@H]23)[C@@]2(C)CC[C@@H](O)C[C@@H]12 [Example 51] | 319% | < 100 nM
7 | CC[C@H]1[C@@H](O)[C@@H]2[C@H](CC[C@]3(C)[C@@H]([C@H](C)CCNC(=O)NS(=O)(=O)N(C(C)C)C(C)C)CC[C@@H]23)[C@@]2(C)CC[C@@H](O)C[C@@H]12 [Example 52] | 281% | 100 to 1000 nM
8 | CC[C@H]1[C@@H](O)[C@@H]2[C@H](CC[C@]3(C)[C@@H]([C@H](C)CCNC(=O)NS(=O)(=O)c4cccc(C(C)(C)C)c4)CC[C@@H]23)[C@@]2(C)CC[C@@H](O)C[C@@H]12 [Example 53] | 263% | < 100 nM
9 | CC[C@H]1[C@@H](O)[C@@H]2[C@H](CC[C@]3(C)[C@@H]([C@H](C)CCNC(=O)NS(=O)(=O)c4ccc(-c5ccccc5)cc4)CC[C@@H]23)[C@@]2(C)CC[C@@H](O)C[C@@H]12 [Example 54] | 273% | < 100 nM
10 | CC[C@H]1[C@@H](O)[C@@H]2[C@H](CC[C@]3(C)[C@@H]([C@H](C)CCNC(=O)NS(=O)(=O)c4ccc5c(c4)CCC5)CC[C@@H]23)[C@@]2(C)CC[C@@H](O)C[C@@H]12 [Example 55] | 271% | < 100 nM
11 | CC[C@H]1[C@@H](O)[C@@H]2[C@H](CC[C@]3(C)[C@@H]([C@H](C)CCNC(=O)N(C)S(=O)(=O)c4ccccc4)CC[C@@H]23)[C@@]2(C)CC[C@@H](O)C[C@@H]12 [Example 56] | 295% | 100 to 1000 nM
12 | CC[C@H]1[C@@H](O)[C@@H]2[C@H](CC[C@]3(C)[C@@H]([C@H](C)CCNC(=O)NS(=O)(=O)c4ccc5c(c4)CCCC5)CC[C@@H]23)[C@@]2(C)CC[C@@H](O)C[C@@H]12 [Example 57] | 297% | < 100 nM
13 | CC[C@H]1[C@@H](O)[C@@H]2[C@H](CC[C@]3(C)[C@@H]([C@H](C)CCNC(=O)NS(=O)(=O)c4ccc5c(c4)OCCO5)CC[C@@H]23)[C@@]2(C)CC[C@@H](O)C[C@@H]12 [Example 58] | 307% | < 100 nM
14 | CC[C@H]1[C@@H](O)[C@@H]2[C@H](CC[C@]3(C)[C@@H]([C@H](C)CCNC(=O)NS(=O)(=O)c4ccc(C5CCCCC5)cc4)CC[C@@H]23)[C@@]2(C)CC[C@@H](O)C[C@@H]12 [Example 59] | 344% | 100 to 1000 nM
15 | CC[C@H]1[C@@H](O)[C@@H]2[C@H](CC[C@]3(C)[C@@H]([C@H](C)CCNC(=O)NS(=O)(=O)C[C@]45CCC(CC4=O)C5(C)C)CC[C@@H]23)[C@@]2(C)CC[C@@H](O)C[C@@H]12 [Example 60] | 346% | < 100 nM
16 | CC[C@H]1[C@@H](O)[C@@H]2[C@H](CC[C@]3(C)[C@@H]([C@H](C)CCNC(=O)NS(=O)(=O)C[C@@]45CCC(CC4=O)C5(C)C)CC[C@@H]23)[C@@]2(C)CC[C@@H](O)C[C@@H]12 [Example 61] | 403% | < 100 nM
17 | CC[C@H]1[C@@H](O)[C@@H]2[C@H](CC[C@]3(C)[C@@H]([C@H](C)CCNC(=O)NS(=O)(=O)c4ccc5c(c4)CCN5C(C)=O)CC[C@@H]23)[C@@]2(C)CC[C@@H](O)C[C@@H]12 [Example 62] | 476% | 1000 to 10000 nM
18 | CC[C@H]1[C@@H](O)[C@@H]2[C@H](CC[C@]3(C)[C@@H]([C@H](C)CCNC(=O)NS(=O)(=O)Cc4ccccc4)CC[C@@H]23)[C@@]2(C)CC[C@@H](O)C[C@@H]12 [Example 63] | 452% | 100 to 1000 nM
19 | CC[C@H]1[C@@H](O)[C@@H]2[C@H](CC[C@]3(C)[C@@H]([C@H](C)CCNC(=O)NS(=O)(=O)c4cnccn4)CC[C@@H]23)[C@@]2(C)CC[C@@H](O)C[C@@H]12 [Example 64] | 334% | 1000 to 10000 nM
20 | CC[C@H]1[C@@H](O)[C@@H]2[C@H](CC[C@]3(C)[C@@H]([C@H](C)CCNC(=O)NS(=O)(=O)N4CCC(C)(C)CC4)CC[C@@H]23)[C@@]2(C)CC[C@@H](O)C[C@@H]12 [Example 65] | 498% | < 100 nM
21 | CC[C@H]1[C@@H](O)[C@@H]2[C@H](CC[C@]3(C)[C@@H]([C@H](C)CCNC(=O)NS(=O)(=O)N4CCC(C(C)(C)C)CC4)CC[C@@H]23)[C@@]2(C)CC[C@@H](O)C[C@@H]12 [Example 67] | 351% | < 100 nM
22 | CC[C@H]1[C@@H](O)[C@@H]2[C@H](CC[C@]3(C)[C@@H]([C@H](C)CCNC(=O)NS(=O)(=O)N4CC5CC5C4)CC[C@@H]23)[C@@]2(C)CC[C@@H](O)C[C@@H]12 (some centres unmarked) [Example 68] | 458% | < 100 nM
23 | CC[C@H]1[C@@H](O)[C@@H]2[C@H](CC[C@]3(C)[C@@H]([C@H](C)CCNC(=O)NS(=O)(=O)c4ccc(C(C)(C)CO)cc4)CC[C@@H]23)[C@@]2(C)CC[C@@H](O)C[C@@H]12 [Example 69] | 490% | < 100 nM
24 | CC[C@H]1[C@@H](O)[C@@H]2[C@H](CC[C@]3(C)[C@@H]([C@H](C)CCNC(=O)NS(=O)(=O)c4ccc(C(C)(C)C(=O)OC)cc4)CC[C@@H]23)[C@@]2(C)CC[C@@H](O)C[C@@H]12 [Example 70] | 434% | < 100 nM
25 | CC[C@H]1[C@@H](O)[C@@H]2[C@H](CC[C@]3(C)[C@@H]([C@H](C)CCNC(=O)NS(=O)(=O)c4ccc(-c5csc(C)n5)cc4)CC[C@@H]23)[C@@]2(C)CC[C@@H](O)C[C@@H]12 [Example 71] | 419% | 100 to 1000 nM
